Tests used:
Assay in all cases: relative viability (nuclei count vs DMSO), 5 days (fraction); higher = more cells survive
[1] = compound: C1/C(=C\C2=CC=CS2)/C(=O)/C(=C/C3=CC=CS3)/C1 + CC(=O)Nc1cccc(-n2c(=O)n(C3CC3)c(=O)c3c(Nc4ccc(I)cc4F)n(C)c(=O)c(C)c32)c1 [Trametinib] (partner 0.02 µM)
In short: (§1)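 Lung cancer cell lines were seeded in 1536-well plates and dosed by pin tool the next day, with either a single drug or a fixed anchor-drug dose combined with five library-drug doses (not always all listed) spaced in √10 steps. Five days later, one step fixed the cells and stained their nuclei (final 0.05% Triton X-100, 1% formaldehyde, 1 ug/ml Hoechst), and nuclei were counted on 4× images. Relative viability is the nuclei count in treated wells divided by the count in vehicle wells, and each value is the median of duplicate plates.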

[2] = compound: C[C@]12O[C@H](C[C@]1(O)CO)n1c3ccccc3c3c4c(c5c6ccccc6n2c5c31)CNC4=O [Lestaurtinib] + CC1(C)CCC(c2ccc(Cl)cc2)=C(CN2CCN(c3ccc(C(=O)NS(=O)(=O)c4ccc(N[C@H](CCN5CCOCC5)CSc5ccccc5)c(S(=O)(=O)C(F)(F)F)c4)cc3)CC2)C1 [Navitoclax] (partner 0.5 µM)
In short: as §1

Lestaurtinib + Olaparib = compound: C[C@]12O[C@H](C[C@]1(O)CO)n1c3ccccc3c3c4c(c5c6ccccc6n2c5c31)CNC4=O [Lestaurtinib] + O=C(c1cc(Cc2n[nH]c(=O)c3ccccc23)ccc1F)N1CCN(C(=O)C2CC2)CC1 [Olaparib] (partner 8 µM)
In short: as §1

[3] = compound: C[C@]12O[C@H](C[C@]1(O)CO)n1c3ccccc3c3c4c(c5c6ccccc6n2c5c31)CNC4=O [Lestaurtinib] + N=C(N)NC(=N)NCCc1ccccc1 [Phenformin] (partner 250 µM)
In short: as §1

| Cell Line | relative viability ([1]; first compound 0.2 µM) | relative viability ([1]; first compound 0.6325 µM) | relative viability ([1]; first compound 2 µM) | relative viability ([1]; first compound 6.325 µM) | relative viability ([1]; first compound 20 µM) | relative viability ([2]; first compound 0.005 µM) | relative viability ([2]; first compound 0.01581 µM) | relative viability ([2]; first compound 0.05 µM) | relative viability ([2]; first compound 0.1581 µM) | relative viability ([2]; first compound 0.5 µM) | relative viability (Lestaurtinib + Olaparib; first compound 0.005 µM) | relative viability (Lestaurtinib + Olaparib; first compound 0.01581 µM) | relative viability (Lestaurtinib + Olaparib; first compound 0.05 µM) | relative viability (Lestaurtinib + Olaparib; first compound 0.1581 µM) | relative viability (Lestaurtinib + Olaparib; first compound 0.5 µM) | relative viability ([3]; first compound 0.005 µM) | relative viability ([3]; first compound 0.01581 µM) | relative viability ([3]; first compound 0.05 µM) | relative viability ([3]; first compound 0.1581 µM) | relative viability ([3]; first compound 0.5 µM) |
| --- | --- | --- | --- | --- | --- | --- | --- | --- | --- | --- | --- | --- | --- | --- | --- | --- | --- | --- | --- | --- |
| HCC-78 | 0.762 | 0.438 | 0.744 | 0.805 | 0.666 | 0.897 | 0.906 | 0.533 | 0.333 | 0.211 | 0.843 | 0.835 | 0.765 | 0.566 | 0.385 | 0.658 | 0.816 | 0.556 | 0.425 | 0.406 |
| HCC-366 | 0.386 | 0.371 | 0.316 | 0.314 | 0.329 | 1.1 | 1.11 | 0.977 | 1.56 | 0.581 | 0.375 | 0.338 | 0.35 | 0.455 | 0.254 | 0.618 | 0.642 | 0.656 | 0.603 | 0.48 |
| HCC-827 | 0.548 | 0.558 | 0.524 | 0.5 | 0.54 | 1.07 | 1.01 | 0.98 | 0.847 | 0.604 | 0.585 | 0.654 | 0.665 | 0.508 | 0.484 | 0.359 | 0.44 | 0.36 | 0.316 | 0.265 |
| HOP-62 | 0.346 | 0.457 | 0.377 | 0.381 | 0.391 | 0.979 | 1.07 | 0.657 | 0.916 | 0.988 | 0.287 | 0.763 | 0.515 | 0.525 | 0.16 | 0.637 | 0.768 | 0.485 | 0.613 | 0.274 |
| IA-LM | – | – | – | – | – | 0.887 | 0.994 | 0.817 | 0.85 | 0.236 | 0.835 | 0.944 | 0.991 | 0.819 | 0.774 | – | – | – | – | – |
| LC-2-ad | 0.9 | 0.94 | 0.893 | 0.781 | 0.897 | 0.344 | 0.402 | 0.201 | 0.137 | 0.107 | 0.82 | 0.823 | 0.832 | 0.55 | 0.28 | 0.554 | 0.772 | 0.561 | 0.385 | 0.26 |
| LCLC-97TM1 | 0.216 | 0.198 | 0.221 | 0.174 | 0.218 | 0.636 | 0.564 | 0.246 | 0.14 | 0.249 | – | 0.456 | 0.299 | 0.185 | 0.188 | 0.47 | 0.442 | 0.403 | 0.325 | 0.2 |
| LCLC-103H | 0.664 | 0.701 | 0.678 | 0.595 | 0.63 | – | – | – | – | – | 0.872 | 0.845 | 0.719 | 0.655 | 0.529 | 0.336 | 0.379 | 0.327 | 0.288 | 0.234 |
| LK-2 | 0.643 | 0.968 | 0.809 | 0.712 | 0.707 | 1.01 | 0.838 | 0.673 | 0.374 | 0.169 | 0.767 | 0.896 | 0.602 | 0.466 | 0.133 | 0.542 | 0.738 | 0.275 | 0.233 | 0.217 |
| LOU-NH91 | 0.777 | 0.775 | 0.781 | 0.75 | 0.806 | 0.698 | 0.583 | 0.438 | 0.371 | 0.272 | 0.894 | 0.903 | 0.89 | 0.712 | 0.531 | 0.677 | 0.722 | 0.647 | 0.506 | 0.362 |
| NCI-H358 | 0.124 | 0.134 | 0.148 | 0.133 | 0.132 | – | – | – | – | – | 0.548 | 0.396 | 0.408 | 0.322 | 0.141 | 0.338 | 0.295 | 0.208 | 0.137 | 0.0849 |
| NCI-H522 | 0.726 | 0.728 | 0.715 | 0.739 | 0.767 | – | – | – | – | – | 0.741 | 0.617 | 0.665 | 0.617 | 0.429 | 0.722 | 0.614 | 0.634 | 0.552 | 0.525 |
| NCI-H650 | 1.11 | 1 | 0.884 | 0.943 | 0.944 | – | – | – | – | – | 0.43 | 0.413 | 0.382 | 0.319 | 0.28 | 0.427 | 0.415 | 0.362 | 0.265 | 0.314 |
| NCI-H661 | 0.593 | 0.602 | 0.585 | 0.523 | 0.549 | – | – | – | – | – | 0.813 | 0.754 | 0.684 | 0.735 | 0.419 | 0.271 | 0.277 | 0.303 | 0.251 | 0.248 |
| NCI-H1299 | – | – | – | – | – | 1.02 | 1.06 | 0.946 | 0.845 | 0.489 | 0.994 | 1.06 | 0.814 | 0.89 | 0.721 | – | – | – | – | – |
| NCI-H1563 | – | – | – | – | – | – | – | – | – | – | – | – | – | – | – | 0.625 | 0.711 | 0.677 | 0.577 | 0.58 |
| NCI-H1623 | – | – | – | – | – | – | – | – | – | – | – | – | – | – | – | 0.609 | 0.593 | 0.557 | 0.525 | 0.51 |
| NCI-H1648 | 0.604 | 0.628 | 0.435 | 0.417 | 0.256 | – | – | – | – | – | – | 0.979 | – | 1.08 | 0.478 | – | – | – | – | – |
| NCI-H1703 | – | – | – | – | – | 1.22 | 1.09 | 0.424 | 0.219 | 0.11 | 0.437 | 0.285 | 0.145 | 0.212 | 0.123 | – | – | – | – | – |
| NCI-H2342 | 0.859 | 0.819 | 0.801 | 0.672 | 0.899 | – | – | – | – | – | 0.44 | 0.432 | 0.439 | 0.43 | 0.501 | 0.545 | 0.656 | 0.551 | 0.652 | 0.613 |
| SW 900 | 0.739 | 0.752 | 0.815 | 0.308 | 0.734 | – | – | – | – | – | 0.92 | 1.12 | 0.958 | 1.34 | 1.07 | 0.69 | 0.715 | 0.63 | 0.803 | 0.4 |

From the supplement of paper PMC10307832
